In paper PMC10967822, “Antimicrobial Indole-3-Carboxamido-Polyamine Conjugates Target Bacterial Membranes and Are Antibiotic Potentiators” (Biomolecules, 2024):
Converted amounts (≈) assume the structure as drawn.

Tests used:
[1] = Cytotoxicity assay (resazurin); format: cell-based; conditions: human, HEK293 cells, mean n = 2
[2] = tested on: human red blood cells; assay: Hemolytic assay; format: cell-based; conditions: 10% hemolytic activity, mean n = 2
Procedure: Human whole blood was washed three times with three volumes of 0.9% NaCl and then resuspended in the same solution to a concentration of 0.5 × 10^8 cells/mL, as determined by the manual cell count in a Neubauer hemocytometer. The washed cells were then added to the 384-well compound-containing plates for a final volume of 50 μL. After a 10 min shake on a plate shaker, the plates were then incubated for 1 h at 37 °C. After incubation, the plates were centrifuged at 1000× g for 10 min to pellet cells and debris; 25 μL of the supernatant was then transferred to a polystyrene 384-well assay plate. Hemolysis was determined by measuring the supernatant absorbance at […] (OD405). The absorbance was measured using a Tecan M1000 Pro monochromator plate reader. HC10 and HC50 (concentrations at 10% and 50% hemolysis, respectively) were calculated by a curve fitting the inhibition values vs. log (concentration) using a sigmoidal dose–response function with variable fitting values for the top, bottom, and slope.

[3] = tested on: S. aureus ATCC 25923; assay: MIC, broth dilution, S. aureus; format: cell-based, Staphylococcus aureus; conditions: Staphylococcus aureus, ATCC25923; S. aureus ATCC 25923, 18 h; read-out: MIC Sa
[4] = tested on: K. pneumoniae ATCC 700603; assay: MIC, broth microdilution (CO-ADD), K. pneumoniae; conditions: top dose 32 µg/mL
[5] = tested on: E. coli ATCC 25922; assay: MIC, broth dilution, E. coli; format: cell-based, Escherichia coli; conditions: Escherichia coli, ATCC25922; E. coli ATCC 25922, 18 h
[6] = tested on: A. baumannii ATCC 19606; assay: MIC, broth microdilution (CO-ADD), A. baumannii; format: cell-based, Acinetobacter baumannii; conditions: Acinetobacter baumannii, ATCC19606, top dose 32 µg/mL
[7] = tested on: C. neoformans ATCC 208821; assay: Antifungal MIC (CO-ADD), C. neoformans; format: cell-based; conditions: Cryptococcus neoformans, ATCC208821, top dose 32 µg/mL
Procedure: (§1) For the antifungal assay, fungi strains were cultured for 3 days on YPD agar at 30 °C. A yeast suspension of 1 × 10^6 to 5 × 10^6 CFU/mL was prepared from five colonies. These stock suspensions were diluted with a yeast nitrogen base (YNB) (Becton Dickinson, 233520, New South Wales, Australia) broth to a final concentration of 2.5 × 10^3 CFU/mL. […] The plates were covered and incubated at 35 °C for 36 h without shaking. C. albicans MICs were determined by measuring the absorbance at OD530. For C. neoformans, resazurin was added at a 0.006% final concentration to each well and incubated for a further 3 h before the MICs were determined by measuring the absorbance at OD570–600. […] Fluconazole was used as a positive fungal inhibitor standard for C. albicans and C. neoformans. […] The quality control (QC) of the assays was determined by the antimicrobial controls and the Z′-factor (using positive and negative controls).

[8] = tested on: C. albicans ATCC 90028; assay: Antifungal MIC (CO-ADD), C. albicans; format: cell-based; conditions: Candida albicans, ATCC90028, top dose 32 µg/mL
Procedure: as §1

[9] = tested on: P. aeruginosa ATCC 27853; assay: Doxycycline potentiation against P. aeruginosa; format: cell-based, Pseudomonas aeruginosa; conditions: doxycycline at 2 µg/mL (4.5 µM); for Dox/Pa fold-change (intrinsic MIC / combination MIC): P. aeruginosa ATCC 27853; for Dox/Pa: concentration required to restore doxycycline activity (combination MIC): P. aeruginosa ATCC 27853, mean n = 3
Source text: (§2) These measurements were independently repeated in triplicate.

[10] = tested on: MRSA ATCC 43300; assay: MIC, broth microdilution (CO-ADD), MRSA; format: cell-based, methicillin-resistant S. aureus; conditions: Staphylococcus aureus; MRSA ATCC 43300; top dose 32 µg/mL; read-out: MIC MRSA
[11] = tested on: E. coli ATCC 25922; assay: Erythromycin potentiation against E. coli; format: cell-based, Escherichia coli; conditions: erythromycin at 2 µg/mL (2.7 µM); for Erythro/Ec fold-change (intrinsic MIC / combination MIC): E. coli; for Erythro/Ec: concentration required to restore erythromycin activity (combination MIC): mean n = 3
Source text: as §2

[12] = tested on: P. aeruginosa ATCC 27853; assay: MIC, broth dilution, P. aeruginosa; format: cell-based, Pseudomonas aeruginosa; conditions: Pseudomonas aeruginosa, ATCC27853; P. aeruginosa ATCC 27853, 18 h; read-out: MIC Pa

Row | Compound | MIC [3] [µM] | MIC Kp [4] [µM] | MIC [5] [µM] | MIC [6] [µM] | MIC [7] [µM] | MIC [8] [µM] | Dox/Pa fold-change (intrinsic MIC / combination MIC) [9] [fold] | Dox/Pa: concentration required to restore doxycycline activity (combination MIC) [9] [µM] | MIC [10] [µM] | Erythro/Ec fold-change (intrinsic MIC / combination MIC) [11] [fold] | Erythro/Ec: concentration required to restore erythromycin activity (combination MIC) [11] [µM] | MIC [12] [µM] | IC50 at 20 h [1] [µM] | Hemolysis HC10 [2] [µM]
1 | O=C(NCCCNCCCCCCCCCCNCCCNC(=O)c1c[nH]c2c(F)cccc12)c1c[nH]c2c(F)cccc12 [Compound 16e] | 239 (≈ 145 µg/mL) | >38 | 239 (≈ 145 µg/mL) | > 38 | ≤ 0.3 | ≤ 0.3 | 8 | 29.9 | ≤ 0.3 | 1 | 239 | 239 (≈ 145 µg/mL) | > 38 | >38
2 | Cc1ccc2[nH]cc(C(=O)NCCCNCCCCCCCCCCCCNCCCNC(=O)c3c[nH]c4ccc(C)cc34)c2c1.O=C(O)C(F)(F)F.O=C(O)C(F)(F)F [Compound 15f] | 3.65 | >37.3 | 29.2 | ≤ 0.29 | ≤ 0.29 | ≤ 0.29 | 0.5 | 117 | ≤ 0.29 | 1 | 29.2 | 58.3 | 0.55 | >37
3 | COc1cccc2c(C(=O)NCCCNCCCCCCCCNCCCNC(=O)c3c[nH]c4c(OC)cccc34)c[nH]c12 [Compound 17d] | 120 (≈ 72.6 µg/mL) | >38 | 240 (≈ 145 µg/mL) | > 38 | ≤ 0.3 | > 38 | > 4 | 60.0 | ≤ 0.3 | 2 | 120 | > 240 | > 38 | >38
4 | O=C(NCCCNCCCCCCCNCCCNC(=O)c1c[nH]c2ccc(Br)cc12)c1c[nH]c2ccc(Br)cc12 [Compound 13c] | 13.6 (≈ 9.36 µg/mL) | >35 | 110 (≈ 75.7 µg/mL) | > 35 | ≤ 0.27 | 35 (≈ 24.1 µg/mL) | 16 | 13.6 | ≤ 0.27 | 16 | 6.82 | 220 (≈ 151 µg/mL) | > 35 | >35
5 | Cc1ccc2[nH]cc(C(=O)NCCCNCCCCCCCNCCCNC(=O)c3c[nH]c4ccc(C)cc34)c2c1 [Compound 15c] | 63.5 (≈ 35.5 µg/mL) | >41 | 254 (≈ 142 µg/mL) | > 41 | ≤ 0.32 | > 41 | > 4 | 63.5 | ≤ 0.32 | 4 | 63.5 | > 254 | > 41 | >41
6 | Cc1cccc2c(C(=O)NCCCNCCCCCCCNCCCNC(=O)c3c[nH]c4c(C)cccc34)c[nH]c12 [Compound 18c] | > 254 | >41 | > 254 | > 41 | ≤ 0.32 | > 41 | 16 | 15.9 | ≤ 0.32 | 1 | > 254 | 254 (≈ 142 µg/mL) | > 41 | >41
7 | O=C(NCCCNCCCCCCCCCCCCNCCCNC(=O)c1c[nH]c2ccccc12)c1c[nH]c2ccccc12.O=C(O)C(F)(F)F.O=C(O)C(F)(F)F [Compound 12f] | 3.77 | >39 | 15.1 | 4.82 | ≤ 0.3 | ≤ 0.3 | 8 | 15.1 | ≤ 0.3 | 2 | 7.54 | 121 | > 39 | >39

Further molecules by falling MIC [3], results first:

Row | MIC [3] [µM] | MIC Kp [4] [µM] | MIC [5] [µM] | MIC [6] [µM] | MIC [7] [µM] | MIC [8] [µM] | Dox/Pa fold-change (intrinsic MIC / combination MIC) [9] [fold] | Dox/Pa: concentration required to restore doxycycline activity (combination MIC) [9] [µM] | MIC [10] [µM] | Erythro/Ec fold-change (intrinsic MIC / combination MIC) [11] [fold] | Erythro/Ec: concentration required to restore erythromycin activity (combination MIC) [11] [µM] | MIC [12] [µM] | Compound | IC50 at 20 h [1] [µM] | Hemolysis HC10 [2] [µM]
8 | 268 | >43 | 134 | > 43 | ≤ 0.34 | > 43 | > 8 | 33.6 | ≤ 0.34 | 4 | 33.6 | > 268 | O=C(NCCCNCCCCCCNCCCNC(=O)c1c[nH]c2ccccc12)c1c[nH]c2ccccc12.O=C(O)C(F)(F)F.O=C(O)C(F)(F)F [Compound 12b] | > 43 | >43
9 | 248 (≈ 143 µg/mL) | >40 | 248 (≈ 143 µg/mL) | > 40 | ≤ 0.31 | > 40 | > 8 | 31.1 | ≤ 0.31 | 4 | 62.1 | > 248 | COc1ccc2[nH]cc(C(=O)NCCCNCCCCCCNCCCNC(=O)c3c[nH]c4ccc(OC)cc34)c2c1 [Compound 14b] | > 40 | >40
10 | 117 | >37 | 117 | 9.33 | ≤ 0.29 | ≤ 0.29 | 4 | 29.2 | ≤ 0.29 | 1 | 116.7 | 117 | Cc1cccc2c(C(=O)NCCCNCCCCCCCCCCCCNCCCNC(=O)c3c[nH]c4c(C)cccc34)c[nH]c12.O=C(O)C(F)(F)F.O=C(O)C(F)(F)F [Compound 18f] | > 37 | >37
11 | 67.1 (≈ 34.7 µg/mL) | >43 | > 269 | > 43 | ≤ 0.34 | > 43 | > 8 | 33.6 | ≤ 0.34 | > 4 | 67.1 | > 269 | Cc1ccc2[nH]cc(C(=O)NCCCNCCCCNCCCNC(=O)c3c[nH]c4ccc(C)cc34)c2c1 [Compound 15a] | > 43 | >43
